Results published in patent US6683166B2, “Modified internucleoside linkages (ii)” (ISIS Pharmaceuticals, Inc., priority 1992, dated 2004).

Assays:
Assay type in all cases: binding
[1] = system: Single Stranded Target (DNA); test: Thermal denaturation Tm, DNA-duplex
Method: (§1) RNA and DNA duplex and DNA-triplex experiments utilizing certain desirable modified internucleoside linkages of this invention were conducted to determine those linkages' effect on the Tm values of the resulting oligonucleotides.
(§2) These experiments were carried out in a buffered solution (140 mM KCl, 5 mM Na2HPO4, and 1 mM MgCl2) at pH=6.6 (except for the 2′-5′ carbamate which was buffered at pH=7.0) according to the following protocol: 0.15 ODs of the target RNA/DNA was combined with 0.1 OD of the oligomer being assayed in a sterile eppendorf tube and dried. To this mixture was added 300 λ of Tm buffer and the solution was stirred. Tm values were then determined by a first derivative plot of absorbance versus temperature. Thermal denaturation analysis was carried out-with a heating rate of 0.25° C./min and absorbance was monitored at 260 nm.
(§3) The test oligomers that were synthesized for analysis were of the following sequence:
(§4) 5′-TC^mTC^mTC^mTC^mTC^mT^TT^TT-3′
(§5) where T=thymidine, C^m=5-methyl-2′-deoxycytidine, and T^T=a thymidine-thymidine dimer with an experimental linkage of the structure detailed in the table below. All other linkages were phosphodiester.

[2] = system: Single Stranded Target (RNA); test: Thermal denaturation Tm, DNA-RNA-duplex
Method: as §1, §2, §3, §4, §5

[3] = system: Target Duplex Sequence (DNA) 5′ AGAGAGAGAGAAAAA 3′; test: Thermal denaturation Tm, DNA-Triplex
Method: as §1, §2, §3, §4, §5

[4] = Tm change per substituted linkage vs control of the same group

Substance: 5′-2′ thioformacetal: Test oligomer 5′-TCmTCmTCmTCmTCmT^TT^TT-3′, the two T^T dimers having a 5′-2′ thioformacetal linkage; other linkages phosphodiester
- DNA-duplex Tm ([1]; 140 mM KCl, 5 mM Na2HPO4, 1 mM MgCl2, pH 6.6 (2′-5′ carbamate buffered at pH 7.0), first derivative of A260 vs temperature): 53.0
- DNA-duplex ° C./subst [1, 4]: +1.8 ° C./subst
- DNA-RNA-duplex Tm ([2]; 140 mM KCl, 5 mM Na2HPO4, 1 mM MgCl2, pH 6.6 (2′-5′ carbamate buffered at pH 7.0)): 58.5
- DNA-RNA-duplex ° C./subst [2, 4]: −1.5 ° C./subst
- DNA-Triplex Tm ([3]; 140 mM KCl, 5 mM Na2HPO4, 1 mM MgCl2, pH 6.6): 39.0
- DNA-Triplex ° C./subst ([3]; pH 6.6, Tm change per substituted linkage vs control): 0 ° C./subst
